Where two headings read alike, the source gives them in different places.
What was measured:
[1] = target: T1, SK2 (Homo sapiens, UniProt Q9NRA0); test: Test of compounds as SK2 substrates; assay type: biochemical; settings: compound at 50 μM
T1 sequence (Q9NRA0 1-654): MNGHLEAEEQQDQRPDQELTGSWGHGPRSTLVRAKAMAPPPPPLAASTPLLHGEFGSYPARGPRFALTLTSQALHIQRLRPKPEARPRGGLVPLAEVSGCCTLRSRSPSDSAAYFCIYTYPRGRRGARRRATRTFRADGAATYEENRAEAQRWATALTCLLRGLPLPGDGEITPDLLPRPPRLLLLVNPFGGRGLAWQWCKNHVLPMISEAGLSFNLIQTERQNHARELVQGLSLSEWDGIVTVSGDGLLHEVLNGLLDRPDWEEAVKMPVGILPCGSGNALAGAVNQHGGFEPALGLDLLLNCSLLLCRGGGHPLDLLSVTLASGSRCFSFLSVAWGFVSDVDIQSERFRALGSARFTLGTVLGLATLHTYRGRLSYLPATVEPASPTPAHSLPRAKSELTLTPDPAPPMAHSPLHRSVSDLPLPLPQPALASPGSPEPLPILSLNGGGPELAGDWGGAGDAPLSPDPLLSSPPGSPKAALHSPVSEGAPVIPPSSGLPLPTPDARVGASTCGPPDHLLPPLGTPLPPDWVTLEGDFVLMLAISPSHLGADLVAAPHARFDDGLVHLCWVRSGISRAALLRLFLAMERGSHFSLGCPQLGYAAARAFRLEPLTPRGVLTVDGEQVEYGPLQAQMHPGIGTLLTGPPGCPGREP

[2] = target: T2, SK1 (Homo sapiens, UniProt Q9NYA1); test: SK1 expression in PASMC; settings: 10 μM, 24 h, western blot
[3] = target: T1, SK2; test: Inhibition of SK2 activity; assay type: biochemical; settings: compound at 50 μM; Sph 10 μM
[4] = target: T2, SK1; test: Test of compounds as SK1 substrates; assay type: biochemical; settings: compound at 50 μM
[5] = target: T2, SK1; test: Inhibition of SK1 activity; settings: compound at 50 μM; Sph 3 μM
[6] = tested on: PASMC; settings: 24 h

T2 sequence (Q9NYA1 whole entry): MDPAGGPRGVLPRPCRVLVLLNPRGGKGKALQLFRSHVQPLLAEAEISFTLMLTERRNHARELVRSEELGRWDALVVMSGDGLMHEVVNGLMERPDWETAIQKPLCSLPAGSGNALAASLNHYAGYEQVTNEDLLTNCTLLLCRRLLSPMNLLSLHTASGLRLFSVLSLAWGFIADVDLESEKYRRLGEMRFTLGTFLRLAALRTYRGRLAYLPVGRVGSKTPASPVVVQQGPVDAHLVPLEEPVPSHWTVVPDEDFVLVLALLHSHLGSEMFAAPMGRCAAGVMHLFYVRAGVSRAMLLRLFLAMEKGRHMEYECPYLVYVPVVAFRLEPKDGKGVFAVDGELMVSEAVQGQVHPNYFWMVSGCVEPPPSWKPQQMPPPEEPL

| substrate of SK2 [1] | SK2 inhibition in words [3] | substrate of SK1 [4] | SK1 inhibition in words [5] | Structure (SMILES) | also measured |
| --- | --- | --- | --- | --- | --- |
| very weak substrates of SK2 | – | – | – | CCCCCCCCCCCCCCC[C@@H](O)[C@H](CO)NC(=S)Nc1cccc(C(F)(F)F)c1 [F-02] | effect on SK1 expression [2]: without effect on SK1 expression |
| very weak substrates of SK2 | less effective | weak substrates of SK1 | – | CCCCCCCCCCCCCCC[C@@H](O)[C@H](CO)NC(=S)Nc1cccc(F)c1 [F-01] | – |
| – | – | – | effective SK1 inhibitor | CCCCCCCCCCCCCCOC[C@@H](O)[C@H](C)N(C)C [77-7] | – |
| efficiently phosphorylated by SK2 | – | weak substrates of SK1 | – | CCCCCCCCCCCCC/C=C\[C@@H](O)[C@@H](N)CO [67-302] | – |
| – | – | – | – | Cc1cc(CS(=O)(=O)c2ccccc2)cc(OCc2ccc(CN3CCC[C@@H]3CO)cc2)c1 [PF-543] | effect on DNA synthesis ([6]; 10 nM and 100 nM): ineffective at reducing DNA synthesis |
| – | abolished SK1 and SK2 activity | – | – | CCCCCCCCCCCCc1ccc(C(=O)N2CCC[C@H]2C(=N)N)cc1.Cl [VPC96091, reference compound] | effect on DNA synthesis ([6]; 300 nM): ineffective at reducing DNA synthesis |
| – | – | – | more effective SK1 inhibitors | CCCCCCCCCCCCCCC[C@@H](O)[C@H](C)N [55-21, (2S,3R)-2-amino-3-octadecanol] | effect on DNA synthesis ([6]; 100 nM and 1 μM): significantly inhibited DNA synthesis; effect on SK1 expression [2]: reduced the expression of SK1 |
| – | nonselective SK inhibitor | weak substrates of SK1 | nonselective SK inhibitor | CCCCCCCCCCCCCCC[C@@H](O)[C@H](C)[N+](C)(C)C.Cc1ccc(S(=O)(=O)[O-])cc1 [77-13] | – |
| – | – | weak substrates of SK1 | – | CCCCCCCCCCCCCC[C@H]1OC[C@H](NC(=S)Nc2c(F)c(F)c(F)c(F)c2F)[C@@H]1O [67-341] | – |
| – | weak inhibitor of both SK isoforms | – | weak inhibitor of both SK isoforms | CCCCCCCCCCCCC/C=C/[C@@H](O)[C@H](CO)NC(=S)Nc1ccc(C(F)(F)F)cc1 [67-330] | – |

Reference: paper PMC3880124 (MedChemComm, 2013)
